# According to article PMC9288506, “Compounds activating VCP D1 ATPase enhance both autophagic and proteasomal neurotoxic protein clearance” (Nature Communications, 2022):
# Columns and labels:
# Test in all cases: biochemical
# Parameters in all cases: Thermo Fisher in vitro kinase panel, per cent inhibition of kinase activity at 10 uM
# TNIK = TNIK (Homo sapiens, UniProt Q9UKE5)
# Protocol: (§1) Kinase profiling of SMER28 and analogs SMER28 and analogs were tested at 10 µM in a panel of 123 kinases at ThermoFisher Scientific. Follow-up of selected kinases for SMER28 and analogs was also performed at ThermoFisher Scientific. Data are shown in Supplementary Data 2 and 3. […] An inhibition of PIK3C could induce autophagy, mediated by signaling through the AKT/mTOR axis[45].
# GSK3B (GSK3 beta) = GSK3B (GSK3 beta) (Homo sapiens, UniProt P49841)
# Protocol: as §1
# JAK3 = JAK3 (Homo sapiens, UniProt P52333)
# Protocol: as §1
# RPS6KA5 (MSK1) = RPS6KA5 (MSK1) (Homo sapiens, UniProt O75582)
# Protocol: as §1
# PRKCE (PKC epsilon) = PRKCE (PKC epsilon) (Homo sapiens, UniProt Q02156)
# Protocol: as §1
# RET = RET (Homo sapiens, UniProt P07949)
# Protocol: as §1
# FGFR3 = FGFR3 (Homo sapiens, UniProt P22607)
# Protocol: as §1
# BLK = BLK (Homo sapiens, UniProt P51451)
# Protocol: as §1
# PRKG1 = PRKG1 (Homo sapiens, UniProt Q13976)
# Protocol: as §1
# [1] = target: PIK3CD/PIK3R1 (p110 delta/p85 alpha) (Homo sapiens, UniProt O00329)
# Protocol: as §1
# SRPK1 = SRPK1 (Homo sapiens, UniProt Q96SB4)
# Protocol: as §1
# MINK1 = MINK1 (Homo sapiens, UniProt Q8N4C8)
# Protocol: as §1
# JAK1 = JAK1 (Homo sapiens, UniProt P23458)
# Protocol: as §1
# EGFR (ErbB1) = EGFR (ErbB1) (Homo sapiens, UniProt P00533)
# Protocol: as §1
# FLT1 (VEGFR1) = FLT1 (VEGFR1) (Homo sapiens, UniProt P17948)
# Protocol: as §1
# ACVR1B (ALK4) = ACVR1B (ALK4) (Homo sapiens, UniProt P36896)
# Protocol: as §1
# ULK2 = ULK2 (Homo sapiens, UniProt Q8IYT8)
# Protocol: as §1
# DNA-PK = target: T1, DNA-PK (Homo sapiens, UniProt P78527)
# T1 construct: gene PRKDC
# Protocol: as §1
# DYRK2 = DYRK2 (Homo sapiens, UniProt Q92630)
# Protocol: as §1
# CSF1R (FMS) = CSF1R (FMS) (Homo sapiens, UniProt P07333)
# Protocol: as §1
# TGFBR1 (ALK5) = TGFBR1 (ALK5) (Homo sapiens, UniProt P36897)
# Protocol: as §1
# MKNK2 (MNK2) = MKNK2 (MNK2) (Homo sapiens, UniProt Q9HBH9)
# Protocol: as §1
# [2] = target: PIK3CB/PIK3R1 (p110 beta/p85 alpha) (Homo sapiens, UniProt P42338)
# Protocol: as §1
# CAMK1 (CaMK1) = CAMK1 (CaMK1) (Homo sapiens, UniProt Q14012)
# Protocol: as §1
# MAPK1 (ERK2) = MAPK1 (ERK2) (Homo sapiens, UniProt P28482)
# Protocol: as §1
# TGFBR1 (ALK5), sequence (P36897 whole entry): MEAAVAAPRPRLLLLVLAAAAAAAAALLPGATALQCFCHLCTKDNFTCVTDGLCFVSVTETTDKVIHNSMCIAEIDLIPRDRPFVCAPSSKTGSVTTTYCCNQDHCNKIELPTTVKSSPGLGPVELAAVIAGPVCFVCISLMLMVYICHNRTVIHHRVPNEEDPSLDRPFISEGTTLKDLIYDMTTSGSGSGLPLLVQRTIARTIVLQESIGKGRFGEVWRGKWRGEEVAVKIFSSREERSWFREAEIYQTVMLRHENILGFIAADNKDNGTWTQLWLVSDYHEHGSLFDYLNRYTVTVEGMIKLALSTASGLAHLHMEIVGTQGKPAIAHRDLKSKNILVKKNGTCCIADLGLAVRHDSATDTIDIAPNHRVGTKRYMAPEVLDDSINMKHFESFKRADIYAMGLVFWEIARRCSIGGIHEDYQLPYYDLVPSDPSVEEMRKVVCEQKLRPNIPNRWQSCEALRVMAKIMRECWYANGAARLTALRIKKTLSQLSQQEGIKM
# MAPK1 (ERK2), sequence (P28482 whole entry): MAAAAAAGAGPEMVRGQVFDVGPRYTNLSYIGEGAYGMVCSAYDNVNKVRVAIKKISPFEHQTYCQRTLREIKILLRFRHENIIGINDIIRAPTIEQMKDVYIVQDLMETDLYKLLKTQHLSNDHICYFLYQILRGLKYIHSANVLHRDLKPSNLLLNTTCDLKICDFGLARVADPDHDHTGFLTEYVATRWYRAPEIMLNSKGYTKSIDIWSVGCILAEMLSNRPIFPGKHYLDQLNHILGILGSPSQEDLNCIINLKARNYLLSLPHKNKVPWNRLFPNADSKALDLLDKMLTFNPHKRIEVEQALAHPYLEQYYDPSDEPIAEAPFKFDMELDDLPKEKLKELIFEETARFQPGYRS
# EGFR (ErbB1), sequence (P00533 whole entry): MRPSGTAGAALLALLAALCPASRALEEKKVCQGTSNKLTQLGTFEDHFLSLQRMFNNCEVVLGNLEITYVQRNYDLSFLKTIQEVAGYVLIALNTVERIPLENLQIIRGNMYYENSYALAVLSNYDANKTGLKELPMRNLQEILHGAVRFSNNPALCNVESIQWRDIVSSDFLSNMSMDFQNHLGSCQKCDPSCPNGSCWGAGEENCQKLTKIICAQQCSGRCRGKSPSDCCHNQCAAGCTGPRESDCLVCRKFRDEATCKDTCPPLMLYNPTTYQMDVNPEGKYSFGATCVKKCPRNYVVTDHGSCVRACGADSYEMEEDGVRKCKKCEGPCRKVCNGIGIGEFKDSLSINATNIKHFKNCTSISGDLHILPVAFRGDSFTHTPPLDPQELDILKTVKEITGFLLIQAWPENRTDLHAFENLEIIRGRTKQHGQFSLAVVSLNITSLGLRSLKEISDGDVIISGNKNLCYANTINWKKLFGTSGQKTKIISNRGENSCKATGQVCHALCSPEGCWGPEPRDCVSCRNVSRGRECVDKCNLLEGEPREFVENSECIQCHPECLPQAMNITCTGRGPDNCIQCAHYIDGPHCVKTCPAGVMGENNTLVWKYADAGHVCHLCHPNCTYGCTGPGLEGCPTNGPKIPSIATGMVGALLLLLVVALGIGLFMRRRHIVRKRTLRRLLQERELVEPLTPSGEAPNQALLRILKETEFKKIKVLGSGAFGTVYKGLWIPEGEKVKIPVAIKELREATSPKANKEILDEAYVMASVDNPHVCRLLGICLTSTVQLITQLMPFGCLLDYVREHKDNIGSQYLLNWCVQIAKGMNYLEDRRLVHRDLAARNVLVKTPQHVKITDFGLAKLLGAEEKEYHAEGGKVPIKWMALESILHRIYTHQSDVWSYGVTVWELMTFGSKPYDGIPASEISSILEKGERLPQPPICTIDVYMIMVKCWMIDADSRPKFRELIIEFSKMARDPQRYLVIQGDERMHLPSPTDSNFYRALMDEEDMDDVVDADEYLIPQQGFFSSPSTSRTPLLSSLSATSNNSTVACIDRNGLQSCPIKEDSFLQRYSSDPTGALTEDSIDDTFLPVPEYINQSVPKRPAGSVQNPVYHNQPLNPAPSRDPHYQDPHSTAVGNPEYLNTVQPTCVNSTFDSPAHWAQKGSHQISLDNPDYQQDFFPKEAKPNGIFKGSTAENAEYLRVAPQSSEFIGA
# FLT1 (VEGFR1), sequence (P17948 whole entry): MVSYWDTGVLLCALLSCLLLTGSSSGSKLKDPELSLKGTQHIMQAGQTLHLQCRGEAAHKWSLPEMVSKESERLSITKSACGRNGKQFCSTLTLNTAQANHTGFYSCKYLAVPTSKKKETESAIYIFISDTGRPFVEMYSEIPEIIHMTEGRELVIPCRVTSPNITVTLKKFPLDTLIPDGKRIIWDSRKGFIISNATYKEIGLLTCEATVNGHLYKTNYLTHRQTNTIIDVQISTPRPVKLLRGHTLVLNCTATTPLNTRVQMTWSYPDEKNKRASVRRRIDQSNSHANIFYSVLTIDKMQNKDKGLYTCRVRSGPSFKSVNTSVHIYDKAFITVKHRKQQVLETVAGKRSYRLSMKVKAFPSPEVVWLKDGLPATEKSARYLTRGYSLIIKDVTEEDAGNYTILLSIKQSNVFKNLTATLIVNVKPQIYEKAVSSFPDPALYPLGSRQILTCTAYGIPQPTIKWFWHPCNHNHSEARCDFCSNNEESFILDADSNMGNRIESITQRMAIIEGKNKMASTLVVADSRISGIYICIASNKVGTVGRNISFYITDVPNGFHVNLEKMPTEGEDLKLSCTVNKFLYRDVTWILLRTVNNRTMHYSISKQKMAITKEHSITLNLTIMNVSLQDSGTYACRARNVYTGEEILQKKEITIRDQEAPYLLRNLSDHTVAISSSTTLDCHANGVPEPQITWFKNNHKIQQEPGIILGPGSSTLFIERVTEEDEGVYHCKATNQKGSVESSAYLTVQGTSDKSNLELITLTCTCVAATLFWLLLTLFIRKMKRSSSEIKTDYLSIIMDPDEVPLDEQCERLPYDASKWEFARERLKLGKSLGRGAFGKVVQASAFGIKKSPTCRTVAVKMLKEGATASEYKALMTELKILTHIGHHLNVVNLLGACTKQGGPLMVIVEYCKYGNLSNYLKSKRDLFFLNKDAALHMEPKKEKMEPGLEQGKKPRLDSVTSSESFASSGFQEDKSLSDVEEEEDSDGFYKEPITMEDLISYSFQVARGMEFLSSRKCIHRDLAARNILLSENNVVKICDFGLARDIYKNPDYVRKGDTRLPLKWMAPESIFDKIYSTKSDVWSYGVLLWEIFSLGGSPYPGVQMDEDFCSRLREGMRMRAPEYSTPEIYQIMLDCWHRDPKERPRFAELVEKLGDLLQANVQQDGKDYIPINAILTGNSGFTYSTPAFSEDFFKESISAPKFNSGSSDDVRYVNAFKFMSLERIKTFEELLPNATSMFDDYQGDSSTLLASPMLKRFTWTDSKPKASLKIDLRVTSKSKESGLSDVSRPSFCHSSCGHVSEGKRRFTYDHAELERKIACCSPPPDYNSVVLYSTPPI
# JAK3, sequence (P52333 whole entry): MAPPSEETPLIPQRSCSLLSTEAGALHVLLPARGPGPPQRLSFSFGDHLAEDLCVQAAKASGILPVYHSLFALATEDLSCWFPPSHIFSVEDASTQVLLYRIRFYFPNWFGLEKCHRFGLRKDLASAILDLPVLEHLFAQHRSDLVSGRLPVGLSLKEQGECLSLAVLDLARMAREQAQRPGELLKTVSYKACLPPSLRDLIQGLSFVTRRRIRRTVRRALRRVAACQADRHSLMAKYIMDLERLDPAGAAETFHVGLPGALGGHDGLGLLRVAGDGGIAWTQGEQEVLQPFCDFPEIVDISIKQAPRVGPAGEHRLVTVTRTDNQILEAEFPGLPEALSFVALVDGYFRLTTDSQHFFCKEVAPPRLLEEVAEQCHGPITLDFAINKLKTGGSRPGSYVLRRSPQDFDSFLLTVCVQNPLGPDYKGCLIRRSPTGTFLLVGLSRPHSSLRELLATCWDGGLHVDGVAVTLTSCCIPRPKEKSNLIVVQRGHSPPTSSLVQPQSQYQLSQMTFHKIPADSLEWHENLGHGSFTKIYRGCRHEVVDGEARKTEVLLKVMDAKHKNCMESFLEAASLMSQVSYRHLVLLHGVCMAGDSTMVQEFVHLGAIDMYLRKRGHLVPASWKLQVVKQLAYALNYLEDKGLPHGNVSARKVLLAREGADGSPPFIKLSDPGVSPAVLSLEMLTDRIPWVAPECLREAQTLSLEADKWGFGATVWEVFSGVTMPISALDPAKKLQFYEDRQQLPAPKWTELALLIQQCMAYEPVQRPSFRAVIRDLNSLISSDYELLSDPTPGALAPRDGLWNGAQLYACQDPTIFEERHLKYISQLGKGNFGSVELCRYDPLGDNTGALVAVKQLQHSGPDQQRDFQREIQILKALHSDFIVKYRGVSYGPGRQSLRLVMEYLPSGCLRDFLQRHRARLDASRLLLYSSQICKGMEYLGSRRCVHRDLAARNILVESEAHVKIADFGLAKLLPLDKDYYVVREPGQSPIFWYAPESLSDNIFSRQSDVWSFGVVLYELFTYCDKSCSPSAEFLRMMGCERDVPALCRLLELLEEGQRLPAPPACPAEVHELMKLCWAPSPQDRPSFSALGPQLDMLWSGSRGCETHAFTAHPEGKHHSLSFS
# CAMK1 (CaMK1), sequence (Q14012 whole entry): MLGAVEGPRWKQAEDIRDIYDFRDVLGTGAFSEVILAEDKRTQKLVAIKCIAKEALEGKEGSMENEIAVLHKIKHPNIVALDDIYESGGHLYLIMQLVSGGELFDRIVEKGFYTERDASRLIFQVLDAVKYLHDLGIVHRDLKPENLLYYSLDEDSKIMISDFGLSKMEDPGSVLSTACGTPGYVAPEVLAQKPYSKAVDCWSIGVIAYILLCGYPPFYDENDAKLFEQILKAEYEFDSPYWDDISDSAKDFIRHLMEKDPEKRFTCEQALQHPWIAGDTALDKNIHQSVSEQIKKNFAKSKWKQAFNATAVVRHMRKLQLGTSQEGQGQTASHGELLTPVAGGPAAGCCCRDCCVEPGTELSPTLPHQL
structure (smiles),measurement,setting,value
C=CCNc1ncnc2ccc(Br)cc12 [SMER28],inhibition at 10 µM,TNIK,38%
same,inhibition at 10 µM,GSK3B (GSK3 beta),24%
same,inhibition at 10 µM,JAK3,14%
same,inhibition at 10 µM,RPS6KA5 (MSK1),-3%
same,inhibition at 10 µM,PRKCE (PKC epsilon),18%
same,inhibition at 10 µM,RET,25%
same,inhibition at 10 µM,FGFR3,-7%
same,inhibition at 10 µM,BLK,4%
same,inhibition at 10 µM,PRKG1,6%
same,inhibition at 10 µM,[1],78%
same,inhibition at 10 µM,SRPK1,5%
same,inhibition at 10 µM,MINK1,45%
same,inhibition at 10 µM,JAK1,-13%
same,inhibition at 10 µM,EGFR (ErbB1),12%
same,inhibition at 10 µM,FLT1 (VEGFR1),9%
same,inhibition at 10 µM,ACVR1B (ALK4),-19%
same,inhibition at 10 µM,ULK2,3%
same,inhibition at 10 µM,DNA-PK,37%
same,inhibition at 10 µM,DYRK2,67%
same,inhibition at 10 µM,CSF1R (FMS),39%
same,inhibition at 10 µM,TGFBR1 (ALK5),6%
same,inhibition at 10 µM,MKNK2 (MNK2),32%
same,inhibition at 10 µM,[2],23%
same,inhibition at 10 µM,CAMK1 (CaMK1),13%
same,inhibition at 10 µM,MAPK1 (ERK2),-2%
